Experimental data published in patent publication US20060166271A1, “Non-radioactive schilling test” (priority 2003, published 2006).
Several values for one entry are separate records, joined by “and”; a condition that tells them apart may be missing. Equal values may be shown once.

Experiments:
[1] = Vitamin B12 absorption from serum holo-TC and TC saturation before and after oral vitamin B12, patients with suspected malabsorption; format: in vivo, human; conditions: individual patients with Crohn's disease, day 1-day 0, oral 3 times 9 μg
From the text: The subjects participating in the study were 31 healthy subjects recruited in October 2002. None of them suffered from known disorders related to vitamin B12 deficiency. Persons with chronic systemic disease, persons taking any kind of medical treatment, including vitamin tablets within the past week and persons not being able to give written informed consent were excluded. The age of the healthy subjects ranged from to 25 to 57 (mean 40) years. There were 9 men and 22 women. We further included seven patients (age 22-39 years, five men and two women) who had been referred to the out-patient clinic of internal medicine department during 2003 because vitamin B12 malabsorption was suspected. Three of the seven patients have previously been diagnosed as Crohn's disease. […]
The absorption of vitamin B12 was evaluated from analysis of serum vitamin B12, total TC, and holo-TC on samples obtained before and after oral administration of vitamin B12. […]
Serum vitamin B12 was determined by a commercial method (Bayer corporation, NY) on a Centaur equipment (analytical imprecision<10%). Serum total TC and holo-TC were measured by ELISA as recently described (Nexø et al., 2000; 2002), but modified to allow the use of an automated ELISA analyser (BEP-2000, Dade Behring, Germany). […] Haematological parameters were analysed on the Coulter Counter (Beckman Coulter CA). […]

[2] = oral dose; cited from earlier work
[3] = Vitamin B12 absorption from serum vitamin B12, total TC and holo-TC before and after oral vitamin B12, healthy subjects; format: in vivo, human; conditions: for Holo-TC, median: serum
From the text: The subjects participating in the study were 31 healthy subjects recruited in October 2002. None of them suffered from known disorders related to vitamin B12 deficiency. Persons with chronic systemic disease, persons taking any kind of medical treatment, including vitamin tablets within the past week and persons not being able to give written informed consent were excluded. The age of the healthy subjects ranged from to 25 to 57 (mean 40) years. There were 9 men and 22 women. We further included seven patients (age 22-39 years, five men and two women) who had been referred to the out-patient clinic of internal medicine department during 2003 because vitamin B12 malabsorption was suspected. Three of the seven patients have previously been diagnosed as Crohn's disease. The diagnosis of the remaining four patients was not clear. Written informed consent was obtained from all subjects, and the Research Ethics Committee of Aarhus County approved the study protocol (2002.0224).
The absorption of vitamin B12 was evaluated from analysis of serum vitamin B12, total TC, and holo-TC on samples obtained before and after oral administration of vitamin B12.
(§1) In healthy subjects samples were taken at 8:00 a.m. on the day before vitamin B12 intake (−1) and on day 0, 1, 2, and 6. After the blood sample was removed on day 0, an oral dose of 9 μg vitamin B12 (Natur Drogeriet A/S, Hoerning, Denmark) was given three times, with 6 h between the doses (8 a.m., 2 p.m., and 8 p.m. (time points were allowed to deviate ±45 min). One healthy subject was unavailable for delivering a blood sample on day 6. The absorption of vitamin B12 in seven patients was evaluated by the Schilling test I and by the design mentioned above except that the blood samples were obtained only on day 0 and day 1. The Schilling test I was performed after our alternative approach.
The vitamin B12 tablets were given with either water or orange juice. The subjects were allowed to have a light breakfast 30 to 60 min before blood sampling, not including any diary products, but were otherwise allowed to eat their normal diet. The blood samples were centrifuged within 60 minutes and were stored at −80° C. until further processed.
Serum vitamin B12 was determined by a commercial method (Bayer corporation, NY) on a Centaur equipment (analytical imprecision<10%). Serum total TC and holo-TC were measured by ELISA as recently described (Nexø et al., 2000; 2002), but modified to allow the use of an automated ELISA analyser (BEP-2000, Dade Behring, Germany). The following modification was performed; all incubations were performed at 37° C. The analytical imprecision was 7% for total TC (mean=934 pmol/L, n=91) and 8% for holo-TC (mean=38 pmol/L, n=41). The controls were run over 12 months for total TC and 6 months for holo-TC. The reference interval was established from analysing 161 samples obtained from healthy blood donors (age interval; 21-65). The reference interval was 700-1400 pmol/L for total TC, ≧50 pmol/L for holo-TC and ≧0.05 for TC saturation. Haematological parameters were analysed on the Coulter Counter (Beckman Coulter CA). Plasma creatinine was measured using the Jaffe method and a Roche Cobas integra 700 autoanalyzer (analytical imprecision <3%).
Alterations (increase or decrease) in parameters as a function of time were analysed by comparing the changes obtained on the same individuals relative to baseline (day 0) with the theoretical median “0” assigned for day 0. […] P-values <5% were regarded as statistically significant. Data were analysed using SPSS10.0 (SPSS Inc.) and the GraphPad (Prism2) software.

[4] = Schilling test I (urinary excretion of radioactive vitamin B12 over 24 hours); format: in vivo, human; conditions: individual patients with Crohn's disease; 1 μg oral Co-57 tagged vitamin B12, 24 hour urine; normal 10-40%
Procedure: as §1
The Schilling test I was performed as described previously (Chanarin, 1979). Briefly, a fasting patient is given a 1 μg oral dose of vitamin B12, which is tagged with radioactive cobalt (Co-57). Two hours after the oral dose the patient is then injected intramuscularly with 1000 μg of non-labeled vitamin B12. A 24 hour urine collection is initiated. The percentage of the administered dose excreted in the urine over 24 hours is then determined. Urinary excretion of 10-40% of the administered dose is considered normal.

[5] = DAY 1 after oral 3 times 9 μg vitamin B12, 31 healthy subjects
[6] = DAY 2 after oral 3 times 9 μg vitamin B12, 31 healthy subjects
[7] = DAY 6 after oral 3 times 9 μg vitamin B12, 31 healthy subjects
[8] = control subjects after omitting outliers (n=2)
[9] = one day after oral dose of three times 9 μg, healthy subjects (discussion)
[10] = relative to baseline (day 0), oral 3 times 9 μg, healthy subjects
[11] = relative to baseline (day 0), oral 3 times 9 μg, n=31 healthy subjects

Increase in TC saturation after vitamin B12 intake [1]: 0.004 and 0.01 (2×)
Increase in holo-TC after vitamin B12 intake [1]: 3 pmol/L and 7 pmol/L and 14 pmol/L
Serum vitamin B12, median [3, 5]: 279 pmol/L
TC saturation (holo-TC/total-TC), median [3, 5]: 0.13 fraction
Holo-TC, median [3, 5]: 118 pmol/L
Serum vitamin B12, median [3, 6]: 253 pmol/L
TC saturation (holo-TC/total-TC), median [3, 6]: 0.11 fraction
Holo-TC, median [3, 6]: 87 pmol/L
Serum vitamin B12, median [3, 7]: 260 pmol/L
TC saturation (holo-TC/total-TC), median [3, 7]: 0.09 fraction
Holo-TC, median [3, 7]: 80 pmol/L
Minimum increase for TC saturation (day 1-day 0) [3, 8]: 0.02
Minimum increase for holo-TC (day 1-day 0) [3, 8]: 15 pmol/L
Increase of TC saturation, median value [3, 9]: around 50%
Increase of holo TC, median value [3, 9]: around 50%
Absolute increase in serum vitamin B12, median (range) [3, 10]: 36 (−27-290) pmol/L
Percentage increase in serum vitamin B12, median (range) [3, 10]: 14 (−8-+51) % and 14%
Maximal absolute increase in TC saturation, median (range) [3, 11]: 0.04 (0-0.23) fraction
Maximal absolute increase in holo-TC, median (range) [3, 11]: 34 (0-149) pmol/L
Maximal percentage increase in TC saturation, median (range) [3, 11]: 52 (−2-+128) %
Maximal percentage increase in holo-TC, median (range) [3, 11]: 39 (0-+108) %
Schilling test I, percentage of vitamin B12 excreted in the urine [4]: 2% and 10% and 15%
Substance: cobalamin [vitamin B12]
Refractory phase with less absorption after ingestion of a dose [2]: about 3 hours
